The values below come from US11034718B2, “C-3 novel triterpenone with C-17 reverse amide derivatives as HIV inhibitors” (HETERO LABS LIMITED, priority 2015, dated 2021).

As a reminder, the IC50 is the concentration that gives 50% inhibition.

SMILES strings stand for the structures. Read-outs that look alike come from different tables or passages of the source. Bounds are passed on as bounds.

What all share (format): cell-based
One assay concerns HIV-1 strain 92HT599. Put plainly: Antiviral activity against HIV-1 strain 92HT599 in MT2 cells (p24 estimation). The following applies: HIV-1 92HT599, ~96 hours. An outline of the steps:
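Percent inhibition versus vehicle controls came from p24 quantified in supernatant aliquots. These were taken after ~96 h incubation of compound (DMSO ≤1%) with MT2 cells infected at 10 TCID50/30,000 cells.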

In the next assay the test system is HIV-1 pNL4-3 WT. Put plainly: Antiviral activity against pNL4-3/WT strain in MT4 cells (p24 estimation). As to conditions: Human immunodeficiency virus 1, MT4, 96 h, read-out: pNL4-3 WT IC50. The protocol: (§1) Example 78: Evaluation of Compounds Antiviral Activity Against pNL4-3/WT & V7A Strains in MT4 Cells
(§2) MT4 cells were Transfected with HIV-1 Plasmid (pNL4-3-WT & V7A) (Cells were incubating with required number of TCID50 of HIV-1 for 1.5 h at 37° C.). After infection, the infected cells were plated at the concentration of 3×10^4 cells per well in 96 well plate. Test compound was added to the test plate in defined format with the final concentration of DMSO is not more than 1%. Incubation was carried out in CO2 incubator for 4 days for viral infection. At the end of incubation period an aliquot from each well was taken for p24 estimation. p24 estimation was carried out using Advance biosciences kit as per the procedure detailed by supplier.

A further assay deals with HIV-1 pNL4-3 V7A. Put plainly: Antiviral activity against pNL4-3/V7A strain in MT4 cells (p24 estimation). The following applies: Human immunodeficiency virus 1, MT4, 96 h, read-out: pNL4-3 V7A IC50. The protocol:
as §1, §2

Where [1] appears, read: Human immunodeficiency virus 1, 0% serum binding assay, read-out: IC50 0% serum.
The mark [2] stands for this setting: Human immunodeficiency virus 1, 40% serum binding assay, read-out: IC50 40% serum.

For the compound `Cc1nnc(-c2ccc(C(=O)NC(C)(C)C(=O)N[C@@]34CC[C@]5(C)[C@H](CC[C@@H]6[C@@]7(C)CC[C@H](OC(=O)[C@H]8C[C@@H](C(=O)O)C8(C)C)C(C)(C)[C@@H]7CC[C@]65C)C3=C(C(C)C)C(=O)C4)cc2)o1` [Example 56, (1R,3S)-3-((((3aR,5aR,5bR,7aR,9S,11aR,11bR,13aS)-1-isopropyl-5a,5b,8,8,11a-pentamethyl-3a-(2-methyl-2-(4-(5-methyl-1,3,4-oxadiazol-2-yl)benzamido)propanamido)-2-oxo-3,3a,4,5,5a,5b,6,7,7a,8,9,10,11,11a,11b,12,13,13a-octadecahydro-2H-cyclopenta[a]chrysen-9-yl)oxy)carbonyl)-2,2-dimethylcyclobutane-1-carboxylic acid], the IC50 in the assay on HIV-1 strain 92HT599 (setting [1]) was under 3 nM; in the assay with HIV-1 strain 92HT599 (setting [2]), under 50 nM; in the assay on HIV-1 pNL4-3 WT, 5.01 to 10 nM; in the assay on HIV-1 pNL4-3 V7A it was 10 to 50 nM.
On the same counts, the results for `CC(C)C1=C2[C@H]3CC[C@@H]4[C@@]5(C)CC[C@H](OC(=O)[C@H]6C[C@@H](C(=O)O)C6(C)C)C(C)(C)[C@@H]5CC[C@@]4(C)[C@]3(C)CC[C@@]2(NC(=O)C(C)(C)NC(=O)c2ccc3ccccc3n2)CC1=O` [Example 28, (1R,3S)-3-((((3aR,5aR,5bR,7aR,9S,11aR,11bR,13aS)-1-isopropyl-5a,5b,8,8,11a-pentamethyl-3a-(2-methyl-2-(quinoline-2-carboxamido)propanamido)-2-oxo-3,3a,4,5,5a,5b,6,7,7a,8,9,10,11,11a,11b,12,13,13a-octadecahydro-2H-cyclopenta[a]chrysen-9-yl)oxy)carbonyl)-2,2-dimethylcyclobutane-1-carboxylic acid] are under 3 nM, under 50 nM, 5.01 to 10 nM and 10 to 50 nM.
With `CC(C)C1=C2[C@H]3CC[C@@H]4[C@@]5(C)CC[C@H](OC(=O)[C@H]6C[C@@H](C(=O)O)C6(C)C)C(C)(C)[C@@H]5CC[C@@]4(C)[C@]3(C)CC[C@@]2(NC(=O)C(C)(C)NC(=O)c2ccc(Cl)cc2)CC1=O` [Example 1, (1R,3S)-3-((((3aR,5aR,5bR,7aR,9S,11aR,11bR,13aS)-3a-(2-(4-chlorobenzamido)-2-methylpropanamido)-1-isopropyl-5a,5b,8,8,11a-pentamethyl-2-oxo-3,3a,4,5,5a,5b,6,7,7a,8,9,10,11,11a,11b,12,13,13a-octadecahydro-2H-cyclopenta[a]chrysen-9-yl)oxy)carbonyl)-2,2-dimethylcyclobutane-1-carboxylic acid], the 50% inhibitory concentration (IC50) in the assay on HIV-1 strain 92HT599 (setting [1]) is under 3 nM; in the assay with HIV-1 strain 92HT599 (setting [2]) it was under 50 nM; in the assay on HIV-1 pNL4-3 WT, under 5 nM; in the assay on HIV-1 pNL4-3 V7A, under 10 nM.
With `Cc1cn(-c2ccc(C(=O)NC(C)(C)C(=O)N[C@@]34CC[C@]5(C)[C@H](CC[C@@H]6[C@@]7(C)CC[C@H](OC(=O)[C@H]8C[C@@H](C(=O)O)C8(C)C)C(C)(C)[C@@H]7CC[C@]65C)C3=C(C(C)C)C(=O)C4)cc2)cn1` [Example 20, (1R,3S)-3-((((3aR,5aR,5bR,7aR,9S,11aR,11bR,13aS)-1-isopropyl-5a,5b,8,8,11a-pentamethyl-3a-(2-methyl-2-(4-(4-methyl-1H-imidazol-1-yl)benzamido)propanamido)-2-oxo-3,3a,4,5,5a,5b,6,7,7a,8,9,10,11,11a,11b,12,13,13a-octadeca hydro-2H-cyclopenta[a]chrysen-9-yl)oxy)carbonyl)-2,2-dimethylcyclobutane-1-carboxylic acid], the IC50 in the assay with HIV-1 strain 92HT599 (setting [1]) was under 3 nM; in the assay with HIV-1 strain 92HT599 (setting [2]), under 50 nM; in the assay on HIV-1 pNL4-3 WT it was over 10 nM; in the assay with HIV-1 pNL4-3 V7A it was over 50 nM.
The matching figures for `CC(C)C1=C2[C@H]3CC[C@@H]4[C@@]5(C)CC[C@H](OC(=O)[C@H]6C[C@@H](C(=O)O)C6(C)C)C(C)(C)[C@@H]5CC[C@@]4(C)[C@]3(C)CC[C@@]2(NC(=O)C(C)(C)NS(C)(=O)=O)CC1=O` [Example 63, sodium (1R,3S)-3-((((3aR,5aR,5bR,7aR,9S,11aR,11bR,13aS)-1-isopropyl-5a,5b,8,8,11a-pentamethyl-3a-(2-methyl-2-(methylsulfonamido)propanamido)-2-oxo-3,3a,4,5,5a,5b,6,7,7a,8,9,10,11,11a,11b,12,13,13a-octadecahydro-2H-cyclopenta[a]chrysen-9-yl)oxy)carbonyl)-2,2-dimethylcyclobutane-1-carboxylate]: under 3 nM, under 50 nM, over 10 nM and over 50 nM.
The matching figures for `CC(C)C1=C2[C@H]3CC[C@@H]4[C@@]5(C)CC[C@H](OC(=O)[C@H]6C[C@@H](C(=O)O)C6(C)C)C(C)(C)[C@@H]5CC[C@@]4(C)[C@]3(C)CC[C@@]2(NC(=O)C(C)(C)NC(=O)c2csc(N)n2)CC1=O` [Example 55, (1R,3S)-3-((((3aR,5aR,5bR,7aR,9S,11aR,11bR,13aS)-3a-(2-(2-aminothiazole-4-carboxamido)-2-methylpropanamido)-1-isopropyl-5a,5b,8,8,11a-pentamethyl-2-oxo-3,3a,4,5,5a,5b,6,7,7a,8,9,10,11,11a,11b,12,13,13a-octadecahydro-2H-cyclopenta[a]chrysen-9-yl)oxy)carbonyl)-2,2-dimethylcyclobutane-1-carboxylic acid]: 3.01 to 10 nM, 50 to 200 nM, over 10 nM and over 50 nM.
On the same counts, the results for `CC(C)C1=C2[C@H]3CC[C@@H]4[C@@]5(C)CC[C@H](OC(=O)[C@H]6C[C@@H](C(=O)O)C6(C)C)C(C)(C)[C@@H]5CC[C@@]4(C)[C@]3(C)CC[C@@]2(NC(=O)C2(NC(=O)c3ncccn3)CCC2)CC1=O` [Example 44, (1R,3S)-3-((((3aR,5aR,5bR,7aR,9S,11aR,11bR,13aS)-1-isopropyl-5a,5b,8,8,11a-pentamethyl-2-oxo-3a-(1-(pyrimidine-2-carboxamido)cyclobutane-1-carboxamido)-3,3a,4,5,5a,5b,6,7,7a,8,9,10,11,11a,11b,12,13,13a-octadecahydro-2H-cyclopenta[a]chrysen-9-yl)oxy)carbonyl)-2,2-dimethylcyclobutane-1-carboxylic acid] are under 3 nM, 50 to 200 nM, over 10 nM and over 50 nM.
As for `CCOC(=O)NC(C)(C)C(=O)N[C@@]12CC[C@]3(C)[C@H](CC[C@@H]4[C@@]5(C)CC[C@H](OC(=O)[C@H]6C[C@@H](C(=O)O)C6(C)C)C(C)(C)[C@@H]5CC[C@]43C)C1=C(C(C)C)C(=O)C2` [Example 64], the IC50 in the assay on HIV-1 strain 92HT599 (setting [1]) is under 3 nM; in the assay with HIV-1 strain 92HT599 (setting [2]) it was under 50 nM; in the assay on HIV-1 pNL4-3 WT, 5.01 to 10 nM; in the assay with HIV-1 pNL4-3 V7A, over 50 nM.
Take `CC(C)C1=C2[C@H]3CC[C@@H]4[C@@]5(C)CC[C@H](OC(=O)[C@H]6C[C@@H](C(=O)O)C6(C)C)C(C)(C)[C@@H]5CC[C@@]4(C)[C@]3(C)CC[C@@]2(NC(=O)C(C)(C)NC(=O)c2cnn3cccnc23)CC1=O` [Example 54, (1R,3S)-3-((((3aR,5aR,5bR,7aR,9S,11aR,11bR,13aS)-1-isopropyl-5a,5b,8,8,11a-pentamethyl-3a-(2-methyl-2-(pyrazolo[1,5-a]pyrimidine-3-carboxamido)propanamido)-2-oxo-3,3a,4,5,5a,5b,6,7,7a,8,9,10,11,11a,11b,12,13,13a-octadecahydro-2H-cyclopenta[a]chrysen-9-yl)oxy)carbonyl)-2,2-dimethylcyclobutane-1-carboxylic acid]: the IC50 in the assay with HIV-1 strain 92HT599 (setting [1]) was under 3 nM; in the assay with HIV-1 strain 92HT599 (setting [2]), under 50 nM; with HIV-1 pNL4-3 WT, under 5 nM; with HIV-1 pNL4-3 V7A, 10 to 50 nM.
On the same counts, the results for `CC(C)C1=C2[C@H]3CC[C@@H]4[C@@]5(C)CC[C@H](OC(=O)[C@H]6C[C@@H](C(=O)O)C6(C)C)C(C)(C)[C@@H]5CC[C@@]4(C)[C@]3(C)CC[C@@]2(NC(=O)C(C)(C)NC(=O)c2ccc(S(C)(=O)=O)cc2)CC1=O` [Example 51, (1R,3S)-3-((((3aR,5aR,5bR,7aR,9S,11aR,11bR,13aS)-1-isopropyl-5a,5b,8,8,11a-pentamethyl-3a-(2-methyl-2-(4-(methylsulfonyl)benzamido)propanamido)-2-oxo-3,3a,4,5,5a,5b,6,7,7a,8,9,10,11,11a,11b,12,13,13a-octadecahydro-2H-cyclopenta[a]chrysen-9-yl)oxy)carbonyl)-2,2-dimethylcyclobutane-1-carboxylic acid] are under 3 nM, under 50 nM, 5.01 to 10 nM and over 50 nM.
The matching figures for `CC(C)C1=C2[C@H]3CC[C@@H]4[C@@]5(C)CC[C@H](OC(=O)[C@H]6C[C@@H](C(=O)O)C6(C)C)C(C)(C)[C@@H]5CC[C@@]4(C)[C@]3(C)CC[C@@]2(NC(=O)C2(NC(=O)c3ccc(Cl)cc3)CC2)CC1=O` [Example 37, (1R,3S)-3-((((3aR,5aR,5bR,7aR,9S,11aR,11bR,13aS)-3a-(1-(4-chlorobenzamido)cyclopropane-1-carboxamido)-1-isopropyl-5a,5b,8,8,11a-pentamethyl-2-oxo-3,3a,4,5,5a,5b,6,7,7a,8,9,10,11,11a,11b,12,13,13a-octadecahydro-2H-cyclopenta[a]chrysen-9-yl)oxy)carbonyl)-2,2-dimethylcyclobutane-1-carboxylic acid]: under 3 nM, under 50 nM, under 5 nM and under 10 nM.
